Target: T1, SUMO E1 SAE1 V315F mutant (Homo sapiens, UniProt Q9UBE0+Q9UBT2, V315F)
T1 construct: GST (N); made in house; host or cells: Escherichia coli BL21
T1 sequence (Q9UBE0 1-346 V315F): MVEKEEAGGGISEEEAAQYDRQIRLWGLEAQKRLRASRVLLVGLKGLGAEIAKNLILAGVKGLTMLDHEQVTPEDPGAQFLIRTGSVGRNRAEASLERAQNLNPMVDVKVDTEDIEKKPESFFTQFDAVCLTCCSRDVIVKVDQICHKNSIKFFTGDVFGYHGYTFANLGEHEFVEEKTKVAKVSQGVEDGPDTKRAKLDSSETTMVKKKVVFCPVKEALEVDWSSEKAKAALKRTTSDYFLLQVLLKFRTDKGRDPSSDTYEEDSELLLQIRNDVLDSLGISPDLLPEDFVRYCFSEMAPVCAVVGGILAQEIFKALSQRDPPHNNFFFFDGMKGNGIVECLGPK
T1 sequence (Q9UBT2 1-640): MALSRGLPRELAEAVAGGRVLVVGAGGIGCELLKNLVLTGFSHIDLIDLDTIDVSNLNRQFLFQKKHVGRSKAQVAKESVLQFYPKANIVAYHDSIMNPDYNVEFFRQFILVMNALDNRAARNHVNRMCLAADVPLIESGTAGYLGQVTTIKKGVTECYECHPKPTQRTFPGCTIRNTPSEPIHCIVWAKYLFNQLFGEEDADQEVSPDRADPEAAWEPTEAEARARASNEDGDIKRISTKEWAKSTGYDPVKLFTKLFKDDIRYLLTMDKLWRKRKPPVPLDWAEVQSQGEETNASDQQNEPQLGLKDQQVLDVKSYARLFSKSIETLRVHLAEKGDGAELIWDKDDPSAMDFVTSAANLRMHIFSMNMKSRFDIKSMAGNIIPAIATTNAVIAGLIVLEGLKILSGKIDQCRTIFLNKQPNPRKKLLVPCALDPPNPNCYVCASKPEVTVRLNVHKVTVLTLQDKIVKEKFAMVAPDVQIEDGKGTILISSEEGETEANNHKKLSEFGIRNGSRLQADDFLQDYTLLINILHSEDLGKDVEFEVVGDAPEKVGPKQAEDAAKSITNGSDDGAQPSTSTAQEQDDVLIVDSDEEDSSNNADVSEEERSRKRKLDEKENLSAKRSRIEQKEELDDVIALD
Test: SUMO E1 activity assays with SAE1 V315F mutant
Format: biochemical
Experimental: Figure 3 SUMO-specific activating enzyme, E1, is a direct target of N106. Mechanism of action of N106 on individual steps in the SUMOylation cascade in vitro. (a) Inorganic pyrophosphate resulting from ATP hydrolysis in E1-catalysed SUMO-1 activation in the presence of increasing concentration of N106 compound was assessed by fluorogenic pyrophosphate assay kit. Recombinant human SUMO-specific E1 (0.05 μM), human Ubc9 (0.25 μM), human SUMO-1 (12.5 μM) and ATP (1 mM) were incubated with increasing concentration of N106 for 30 min at 37 °C and quantified using a fluorescence microplate reader. (b) The SAE2-SUMO-1 conjugation was detected followed by western blotting with anti-SAE2 antibodies. SUMO E1 (0.05 μM), SUMO-1 (12.5 μM) and ATP (1 mM) were co-incubated with increasing concentration of N106 for 30 min at 37 °C. The reaction mixtures were separated on 7.5% SDS–PAGE gel under non-reducing conditions. (c) E2-SUMO-1 conjugation was visualized by western blotting with anti-Ubc9 antibody. SUMO E1 (0.05 μM), Ubc9 (0.25 μM), SUMO-1 (12.5 μM) and ATP (1 mM) were incubated without or with increasing concentration of N106 for 30 min at 37 °C. […] (e) ATP hydrolytic activity of WT and mutant SUMO E1 are determined. (f) The E1-SUMO-1 conjugation was detected followed by western blot analysis with anti-SAE2 antibody. *The SAE2-SUMO-1 conjugated bands. […]

- ATP hydrolysis activity with N106, compared with wild-type protein (V315F mutant): significantly lower
- SUMO E1-SUMO and SUMO E2-SUMO conjugations in the presence of N106, compared with WT (V315F mutant SAE1): weaker
Structure (SMILES): COc1ccc(-c2nnc(Nc3nc4c(OC)cccc4s3)o2)cc1 [Compound N106, N-(4-methoxybenzo[d]thiazol-2-yl)-5-(4-methoxyphenyl)-1,3,4-oxadiazol-2-amine]
